Source: the CheMixHub viscosity set

Assay: xn = mol fraction of the nth substance listed

COCCOCCOCCOC + CCOC(=O)OCC
298.15 K, 101.33 kPa
Conditions	viscosity [mPa·s]
x1 = 0.0103	0.759
x1 = 0.0175	0.767
x1 = 0.0246	0.775
x1 = 0.0367	0.788
x1 = 0.0576	0.813
x1 = 0.0787	0.837
x1 = 0.0958	0.856
x1 = 0.119	0.879
x1 = 0.1509	0.913
x1 = 0.1983	0.966
x1 = 0.2499	1.021
x1 = 0.3024	1.081
x1 = 0.3233	1.105
x1 = 0.3543	1.142
x1 = 0.4034	1.199
x1 = 0.4614	1.268
x1 = 0.5022	1.324
x1 = 0.552	1.386
x1 = 0.6112	1.463
x1 = 0.6561	1.519
x1 = 0.7044	1.583
x1 = 0.7371	1.624
x1 = 0.7905	1.693
x1 = 0.8464	1.764
x1 = 0.9175	1.85
x1 = 0.951	1.894

COCCOCCOCCO + CCCN
298.15 K, 101 kPa
Conditions	viscosity [mPa·s]
x1 = 0.0053	0.369
x1 = 0.0087	0.378
x1 = 0.0251	0.415
x1 = 0.0368	0.44
x1 = 0.068	0.514
x1 = 0.081	0.549
x1 = 0.105	0.617
x1 = 0.1254	0.682
x1 = 0.1752	0.861
x1 = 0.2146	1.034
x1 = 0.2627	1.279
x1 = 0.2934	1.456
x1 = 0.3347	1.724
x1 = 0.3651	1.935
x1 = 0.4217	2.362
x1 = 0.471	2.749
x1 = 0.5445	3.35
x1 = 0.574	3.599
x1 = 0.6281	4.032
x1 = 0.6683	4.359
x1 = 0.7088	4.66
x1 = 0.7716	5.104
x1 = 0.812	5.359
x1 = 0.8595	5.626
x1 = 0.8867	5.774
x1 = 0.9185	5.92

CCCC[n+]1ccn(C)c1.[Cl][Al-]([Cl])([Cl])[Cl] + Cc1ccccc1
101 kPa, x2 = 0.37
Conditions	viscosity [mPa·s]
293.15 K	18.2
298.15 K	16.6
303.15 K	14.6
308.15 K	13.1
313.15 K	11.6
318.15 K	10.5
323.15 K	9.6

COCCOCCOCCOC + CO
viscosity [mPa·s], 100 kPa
Conditions	293.15 K	298.15 K	303.15 K
x2 = 0.0543	2.129	1.922	1.733
x2 = 0.0988	2.083	1.882	1.696
x2 = 0.1978	1.982	1.795	1.621
x2 = 0.3013	1.864	1.689	1.527
x2 = 0.3994	1.737	1.58	1.434
x2 = 0.5183	1.57	1.433	1.302
x2 = 0.5962	1.443	1.321	1.203
x2 = 0.6983	1.26	1.158	1.058
x2 = 0.7969	1.055	0.975	0.894
x2 = 0.8472	0.944	0.875	0.804
x2 = 0.8993	0.825	0.767	0.705
x2 = 0.9489	0.711	0.662	0.608

CC(C)(C)O + CCCCCCCC
viscosity [mPa·s], 101 kPa
Conditions	x1 = 0.8499	x1 = 0.9	x1 = 0.9235
303.15 K	–	–	2.015
313.15 K	1.075	1.275	–

COCCOCCOCCO + CC(C)O
viscosity [mPa·s], 101 kPa
Conditions	x1 = 0.0079	x1 = 0.0146	x1 = 0.0314	x1 = 0.0413	x1 = 0.0581	x1 = 0.0775	x1 = 0.1025
298.15 K	2.089	2.09	2.099	2.116	2.128	2.159	2.207
308.15 K	1.568	1.574	1.594	1.608	1.628	1.683	1.706
318.15 K	1.202	1.21	1.235	1.252	1.266	1.3	1.343

CCNCC + CCCCCCCCCCO
viscosity [mPa·s], 101 kPa
Conditions	x1 = 0.5973	x2 = 0.0971	x2 = 0.1985	x2 = 0.2971	x2 = 0.4003	x2 = 0.5148	x2 = 0.6024	x2 = 0.7216	x2 = 0.8014	x2 = 0.8997
298.15 K	–	0.472	0.762	1.184	1.834	2.865	3.979	5.858	7.47	9.664
303 K	2.015	–	–	–	–	–	–	–	–	–
313.15 K	–	0.378	0.576	0.851	1.254	1.87	2.556	3.617	4.497	5.631

Nc1ccccc1 + CCCCOCCO
viscosity [mPa·s]
Conditions	298 K	303 K	303.15 K	308 K	313 K	318 K
101 kPa, x1 = 0.138	–	–	2.999	–	–	–
101 kPa, x1 = 0.2648	–	–	3.156	–	–	–
101 kPa, x1 = 0.3818	–	–	3.287	–	–	–
101 kPa, x1 = 0.49	–	–	3.4	–	–	–
101 kPa, x1 = 0.5903	–	–	3.486	–	–	–
101 kPa, x1 = 0.6837	–	–	3.553	–	–	–
101 kPa, x1 = 0.7708	–	–	3.614	–	–	–
101 kPa, x1 = 0.8522	–	–	3.666	–	–	–
101 kPa, x1 = 0.9284	–	–	3.707	–	–	–
101.3 kPa, x2 = 0.0995	3.539	2.974	–	2.573	2.238	1.967
101.3 kPa, x2 = 0.1968	3.471	2.915	–	2.528	2.189	1.929
101.3 kPa, x2 = 0.2548	3.448	2.887	–	2.512	2.184	1.922
101.3 kPa, x2 = 0.3024	3.429	2.886	–	2.507	2.16	1.905
101.3 kPa, x2 = 0.3953	3.397	2.86	–	2.482	2.145	1.893
101.3 kPa, x2 = 0.4355	3.39	2.854	–	2.477	2.143	1.892
101.3 kPa, x2 = 0.5146	3.35	2.833	–	2.463	2.123	1.875
101.3 kPa, x2 = 0.5909	3.31	2.805	–	2.438	2.108	1.856
101.3 kPa, x2 = 0.6936	3.219	2.731	–	2.381	2.07	1.827
101.3 kPa, x2 = 0.8002	3.1	2.588	–	2.332	2.02	1.787
101.3 kPa, x2 = 0.8933	2.974	2.545	–	2.259	1.962	1.742
